Data on one molecule can be found in patent publication US20140323581A1, “TRANSCRIPTOME WIRING ANALYSIS IN PARKINSON'S DISEASE AND USES THEREOF” (THE TRUSTEES OF COLUMBIA UNIVERSITY IN THE CITY OF NEW YORK, priority 2011, published 2014).

Assay [1] has as its system aSyn protein. In words: aSyn protein by ELISA in mitochondrial and membrane fractions of SH-SY5Y cells. To be noted: 100 μM for 48 h. It counts as cell-based, human. The procedure: (§1) Mitochondria were purified using Qproteome Mitochondria Isolation Kit (Qiagen) and membrane fractions were isolated using Subcellular Protein Fractionation Kit (Pierce) following manufacturers' instructions. Human aSyn protein levels were determined using the aSyn Human ELISA kit (Invitrogen). Absorbance was read on a VersaMax ELISA Microplate Reader (Molecular Devices, Inc) at 450 nm. The amount of human aSyn was normalized to total cellular protein as determined with the DC Protein Assay Reagent kit (Bio-Rad). Mitochondrial preparations were validated by Western blot analysis for Tom20 and synaptophysin (see FIG. 12d).
(An ELISA detects its analyte on a solid surface through an enzyme-linked reagent.)

The subject of assay [2] is aSynL:total ratio. Here is the method:
Total RNA was isolated using a miRNeasy kit (Qiagen) and nascent RNA was purified using the Click-iT® Nascent RNA Capture Kit (Invitrogen) following manufacturer's instructions; total and nascent RNA were then subjected to RT-qPCR analysis as below.
RT-qPCR analyses were performed as described ^60.

Assay [3] concerns aSyn protein. In words: Total endogenous aSyn protein by ELISA in SH-SY5Y cells. In kind it is cell-based, human. To be noted: 100 μM for 48 h. The procedure: as §1
The subject of assay [4] is aSyn protein. In words: Colocalization of aSyn and Mitotracker in primary cortical neuron cultures from PAC transgenic mice. It counts as cell-based. To be noted: primary mouse cortical neurons, 100 μM for 24 h. The procedure:
(§2) Cultures of rodent neurons were prepared as described in ^53. Cells were maintained in vitro for 3-5 days before drug treatments or transfection using Lipofectamine 2000 (Iinvitrogen) following manufacturer's instructions.
Immunostainings were done as previously described ^59 with Rabbit anti-aSyn (Santa Cruz, 1:200) or Mouse anti-Synaptophysin (Millipore, 1:100) as primary antibodies, and Alexa 555 goat anti-rabbit IgG or Alexa 633 goat anti-mouse IgG (Invitrogen) secondary antibodies. MitoTracker-Orange (Invitrogen, 1:10000) was added into media for 15-20 min in living cell culture. Collocalization analyses were done in R using EBImage package; using Pearson's correlation coefficient.

Assay [5] concerns aSynL:total ratio. In words: aSynL:total ratio by RT-qPCR in rat primary cortical cultures. It counts as cell-based. Here is the method:
as §2
RT-qPCR analyses were performed as described ^60. The human aSynL:Total mRNA ratio was quantified in terms of AACt ^60 using primer pair Lh for the human long form (HaSynLfw [[…]] SEQ ID NO: 13, and HaSynLry [[…]]) SEQ ID NO: 14 and primer pair Th for human total (HaSynTfw [[…]] SEQ ID NO: 15 and HaSynTrv [[…]] SEQ ID NO: 16). For analysis of either mouse or rat, primer pairs mrL (RaSynLfw [[…]] SEQ ID NO: 17 and RaSynLrv [[…]] SEQ ID NO: 18) and mrT (RaSynTfw [[…]] SEQ ID NO: 19, RaSynTry [[…]] SEQ ID NO: 20) were used.

The test system of a further assay is aSyn translation. In words: Endogenous aSyn protein by ELISA normalized to total aSyn mRNA in SH-SY5Y cells (aSyn translation). In kind it is cell-based, human. The conditions noted are these: dopamine 100 uM for 24 h. An excerpt:
Mitochondria were purified using Qproteome Mitochondria Isolation Kit (Qiagen) and membrane fractions were isolated using Subcellular Protein Fractionation Kit (Pierce) following manufacturers' instructions. […] Absorbance was read on a VersaMax ELISA Microplate Reader (Molecular Devices, Inc) at 450 nm. The amount of human aSyn was normalized to total cellular protein as determined with the DC Protein Assay Reagent kit (Bio-Rad). Mitochondrial preparations were validated by Western blot analysis for Tom20 and synaptophysin (see FIG. 12d). RT-qPCR analyses were performed as described ^60. […] NO: 17 and […] NO: 18) […] NO: 19, […] NO: 20) were used. The human SH-SY5Y neuroblastoma cell line (ATCC) was cultured following the distributor's instructions. Cells were plated at a density of 4×10^5 cells per well (in 48-well plates) in wells coated with 0.1% gelatin (Specialty Media, Millipore) 24 hours prior to transfection. Transfections were performed with Lipofectamine 2000 reagent (Invitrogen) following the manufacturer's instructions. The human HEK-293T cell line (ATCC) was cultured in DMEM (Invitrogen) supplemented with 10% FBS (Invitrogen). Cells were plated at a density of 8×10^3 cells per well (96-well plates). […] Luciferase and Renilla activities were measured 24 h or 48 h after transfection using Dual-Glo luciferase assay system (Promega).

Assay [6] concerns aSynL:total ratio. The conditions noted are these: GFP-aSyn wild-type 1.1 kb 3′UTR plasmid, lysed after 48 h.
Protocol: Northern Blots were performed using the NorthernMax kit (Ambion) following manufacturer's instructions. 10 μg of total RNA was purified using miRNeasy kit (Qiagen) and loaded per lane.
In assay [7] the test system is aSynL:total ratio. In words: In situ hybridization for aSyn CDS and long 3′UTR in primary cortical neuron cultures from aSyn PAC transgenic mice. To be noted: 100 μM for 24 h, DIV 4 PAC mouse cortical neurons. It counts as cell-based. Here is the method:
as §2
In situ hybridization were performed using QuantiGene® ViewRNA ISH Cell Assay (Panomics) following manufacturer's instructions, with QG ViewRNA TYPE 8 Probe Sets (Panomics) designed to target either human aSyn CDS sequences (bases 264-634 from NM_000345.3; Panomics) or to target human aSynL 3′UTR sequences (bases 1180-1760 from NM_000345.3).

In assay [8] the test system is aSynL:total ratio. In words: aSynL:total ratio in total RNA of SH-SY5Y cells by RT-qPCR (transcription inhibition). In kind it is cell-based, human. The conditions noted are these: SH-SY5Y, dopamine 100 μM, 24 h, no actinomycin D. In general terms: Real-time PCR tracks product formation cycle by cycle.
For another assay, the system named is human aSyn 3′UTR. In words: Firefly luciferase-aSyn 3′UTR reporter assay in SH-SY5Y cells. To be noted: for dopamine-mediated increase in luciferase accumulation under VMAT2 overexpression: SH-SY5Y co-transfected with VMAT2 vector; for luciferase expression, Firefly/Renilla ratio, short aSyn 3′UTR vector: 100 μM for 24 hrs. It counts as cell-based. The procedure:
The human SH-SY5Y neuroblastoma cell line (ATCC) was cultured following the distributor's instructions. Cells were plated at a density of 4×10^5 cells per well (in 48-well plates) in wells coated with 0.1% gelatin (Specialty Media, Millipore) 24 hours prior to transfection. Transfections were performed with Lipofectamine 2000 reagent (Invitrogen) following the manufacturer's instructions. The human HEK-293T cell line (ATCC) was cultured in DMEM (Invitrogen) supplemented with 10% FBS (Invitrogen). Cells were plated at a density of 8×10^3 cells per well (96-well plates). Mir-34b-3p precursor, specific Anti-miR Mir-34b-3p inhibitor, Anti-miR Negative Control #1, and Pre-miR Negative Control #1 were purchased from Ambion. Cells were co-transfected with luciferase reporter plasmids and a small RNA or inhibitor (as indicated) using siPort NeoFx reagent (Ambion) following manufacturer's protocol. Luciferase and Renilla activities were measured 24 h or 48 h after transfection using Dual-Glo luciferase assay system (Promega).
For orientation: A reporter such as luciferase makes a cellular process visible.

Entries after “also recorded” stand apart in the source; their conditions may differ. Where two headings read alike, the source gives them in different places. Bounds are passed on as bounds.

Turning to `NCCc1ccc(O)c(O)c1` [dopamine], the “aSyn content within total cell membrane fraction relative to whole cell lysate (ELISA)” value with aSyn protein [1] is “decreased; also recorded: reduction”. Further, in the assay on aSyn protein [1], the “aSyn protein content in mitochondrial preparations relative to whole cell aSyn content (ELISA)” value is listed as “increased proportion; also recorded: preferentially increased”. Besides, the “aSynL:total ratio among the labeled RNA population” value was “robust and durable increase” with aSynL:total ratio [2] (100 μM dopamine exclusively during the pulse-labeling period); “did not produce any effect” with aSynL:total ratio [2] (100 μM dopamine exclusively post-labeling (chase)). Also, the “treatment time after which the increase of the aSynL:total ratio is detectable in the nascent RNA population” value in the assay with aSynL:total ratio [2] (SH-SY5Y, dopamine) is ≤ 4 h. The “treatment time for the dopamine effect on aSynL:total ratio to become detectable in the total RNA population” value with aSynL:total ratio [2] (SH-SY5Y, dopamine) is recorded as “at least 16 hrs”. Moreover, the “increase in aSynL:total ratio in nascent RNA” value in the assay with aSynL:total ratio [2] (dopamine 100 μM with EU for 4 h, captured EU-labeled RNA) is reported as “robustly observed”. In addition, the “increase in aSynL:total ratio in total RNA” value in the assay with aSynL:total ratio [2] (dopamine 100 μM with EU for 4 h, total RNA) is reported as “not in total RNA”. Further, the “endogenous aSyn protein levels (ELISA, normalized to total protein)” value with aSyn protein [3] is given as “significantly increased”. Also, the “fraction of aSyn protein that colocalized with mitochondria (Mitotracker)” value with aSyn protein [4] was “significantly increased”. For the same molecule, the “aSynL:total ratio” value is “significantly increased the sensitivity” in the assay on aSynL:total ratio [5] (dopamine 10 μM for 24 hrs, cells transfected with vector encoding DAT); “resistant” in the assay with aSynL:total ratio [5] (low extracellular dopamine 10 μM for 24 h, no DAT overexpression); “increase; also recorded: significantly increased” with aSynL:total ratio [5] (rat primary cortical neurons, RT-qPCR, dopamine, picrotoxin, muscimol, NMDA 100 μM, kainic acid 50 μM, vs vehicle). Further, in the assay with aSyn translation, the “aSyn translation: endogenous aSyn protein (ELISA) normalized to total aSyn mRNA” value is recorded as “significant increase”. Moreover, the “aSynL (1070 nt 3′UTR) transcript relative to shorter (300 nt 3′UTR) transcript, Northern blot” value with aSynL:total ratio [6] is recorded as “increase”. For the same molecule, the “aSynL:total ratio (ratio of in situ hybridization signals)” value with aSynL:total ratio [7] is listed as “increase”. The “aSynL:total ratio in total RNA” value in the assay on aSynL:total ratio [8] is given as “increase”. Moreover, the “dopamine-mediated increase in luciferase accumulation under VMAT2 overexpression” value is on record as “suppressed” in the assay with human aSyn 3′UTR (dopamine 100 μM for 48 h) and “cancelled” in the assay on human aSyn 3′UTR (dopamine 100 μM for 48 h, listed as Dopamine). Moreover, in the assay on human aSyn 3′UTR (SH-SY5Y, 100 μM for 24 h), the “luciferase expression, Firefly/Renilla ratio, 1.1 kb human aSyn 3′UTR vector” value is “increased”. In addition, the “luciferase expression, Firefly/Renilla ratio, short aSyn 3′UTR vector” value is recorded as “not observed” in the assay with human aSyn 3′UTR (SH-SY5Y) and “do not influence” with human aSyn 3′UTR (SH-SY5Y, listed as Dopamine). The “aSyn 3′UTR mediated translation (luciferase)” value with human aSyn 3′UTR (SH-SY5Y, vector control, dopamine 100 μM for 48 h) is “potentiates”.
